The source made the active and inactive calls. No stated cut-off is given here; in the data, actives have a measured IC50 and inactives only a lower limit.

The assay deals with Envelope glycoprotein gp160 (Human immunodeficiency virus 1, UniProt Q6QLK5). The assay is described as follows: inhibitors of HIV fusion peptide binding, primary screen, biochemical, uHTS, fluorescence dequenching (AID 1986).
Envelope glycoprotein gp160, sequence (Q6QLK5 whole entry, the tested form may be a part): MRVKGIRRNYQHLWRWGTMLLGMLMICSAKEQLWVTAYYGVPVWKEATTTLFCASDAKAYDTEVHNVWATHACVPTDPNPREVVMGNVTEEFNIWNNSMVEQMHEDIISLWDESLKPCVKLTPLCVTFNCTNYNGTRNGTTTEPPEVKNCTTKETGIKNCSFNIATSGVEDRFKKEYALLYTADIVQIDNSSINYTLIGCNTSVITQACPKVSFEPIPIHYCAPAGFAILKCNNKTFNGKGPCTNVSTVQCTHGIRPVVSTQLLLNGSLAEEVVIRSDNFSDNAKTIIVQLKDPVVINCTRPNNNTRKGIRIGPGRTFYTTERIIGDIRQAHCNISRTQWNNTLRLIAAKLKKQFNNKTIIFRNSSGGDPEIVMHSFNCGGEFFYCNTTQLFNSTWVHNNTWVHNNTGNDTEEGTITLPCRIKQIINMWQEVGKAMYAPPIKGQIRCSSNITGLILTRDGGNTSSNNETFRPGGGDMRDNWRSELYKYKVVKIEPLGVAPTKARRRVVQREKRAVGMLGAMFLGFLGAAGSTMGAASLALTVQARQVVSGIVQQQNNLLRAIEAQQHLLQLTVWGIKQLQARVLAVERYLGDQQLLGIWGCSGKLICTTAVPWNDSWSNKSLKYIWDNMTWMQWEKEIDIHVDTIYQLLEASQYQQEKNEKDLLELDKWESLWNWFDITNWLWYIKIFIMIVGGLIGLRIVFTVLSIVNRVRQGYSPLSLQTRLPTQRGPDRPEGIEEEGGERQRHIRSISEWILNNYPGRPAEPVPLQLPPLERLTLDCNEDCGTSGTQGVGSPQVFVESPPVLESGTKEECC

Turning to `Cc1cc(C)c2nc(N3C(=O)C(O)=C(C(=O)c4ccco4)C3c3ccco3)sc2c1` (stereo unspecified), the half-maximal inhibitory concentration (IC50) (in general, the concentration that inhibits the measured activity by half) was 12.4 µM (active).

For the origin of these results see ChEMBL document CHEMBL1201862, “PubChem BioAssay data set” (2004).
